Structures can show the parent of a compound that is named as a salt.
Key:
Assay type in all cases: cell-based
[1] = tested on: Salmonella spp. (Clinical); settings: [11] tested
Providencia spp. = test: MIC vs recent clinical and agricultural isolates (Table V, KK); settings: [13] tested
E. coli J3272 Tet sens. = test: MIC, agar dilution (Table IA); settings: unit assumed
E. coli UBMS 90-5 = test: MIC, agar dilution (Table IA); settings: unit assumed
E. coli #311 (MP) = test: MIC, agar dilution (Table IA); settings: unit assumed
S. mariescens FDOR 8733 = test: MIC, agar dilution (Table IA); settings: unit assumed
[2] = tested on: X. maltophilia NEMC 87210; test: MIC, agar dilution (Table IA); settings: unit assumed
Enterococcus faecalis = test: MIC against clinical isolates (Table V, A and O); settings: Enterococcus faecalis clinical isolates, (14) tested
Enterococcus faecium = test: MIC against clinical isolates (Table V, A and O); settings: Enterococcus faecium clinical isolates, (11) tested
Bacteroides spp. = test: MIC against clinical isolates (Table V, A and O); settings: Bacteroides spp. clinical isolates, (15) tested

CN(C)CC(=O)Nc1cc(N(C)C)c2c(c1O)C(=O)C1=C(O)[C@]3(O)C(=O)C(C(N)=O)=C(O)[C@@H](N(C)C)C3CC1C2.Cl.Cl (stereo partly drawn) [KK, [4S-(4alpha,12aalpha)]-4,7-Bis(dimethylamino)-9-[[(dimethylamino)acetyl]amino]-1,4,4a,5,5a,6,11,12a-octahydro-3,10,12,12a-tetrahydroxy-1,11-dioxo-2-naphthacenecarboxamide dihydrochloride]
MIC (range over isolates) [1]: 0.25 to 0.5 µg/mL | MIC (range over isolates) (Providencia spp.): 2 to 8 µg/mL | Antibacterial activity (MIC) (E. coli J3272 Tet sens.): 0.12 µg/mL | Antibacterial activity (MIC) (E. coli UBMS 90-5): 0.25 µg/mL | Antibacterial activity (MIC) (E. coli #311 (MP)): 0.25 µg/mL | Antibacterial activity (MIC) (S. mariescens FDOR 8733): 2 µg/mL | Antibacterial activity (MIC) [2]: 0.25 µg/mL

CN(C)c1ccc(O)c2c1C[C@H]1C[C@H]3[C@H](N(C)C)C(O)=C(C(N)=O)C(=O)[C@@]3(O)C(O)=C1C2=O [Compound O, 7-(Dimethylamino)-6-demethyl-6-deoxytetracycline hydrochloride (minocycline hydrochloride), reference compound]
MIC Range (Enterococcus faecalis): <0.015 to 16.00 µg/mL | MIC50 (Enterococcus faecalis; read-out: MIC50): 4 µg/mL | MIC90 (Enterococcus faecalis; read-out: MIC90): 16 µg/mL | MIC Range (Enterococcus faecium): <0.015 to 16.00 µg/mL | MIC50 (Enterococcus faecium; read-out: MIC50): 8 µg/mL | MIC90 (Enterococcus faecium; read-out: MIC90): 16 µg/mL | MIC Range (Bacteroides spp.): >0.15 to 16.00 µg/mL | MIC50 (Bacteroides spp.; read-out: MIC50): 1 µg/mL | MIC90 (Bacteroides spp.; read-out: MIC90): 4 µg/mL

Source: patent USRE40086E1, “Method for treating bacterial infection with novel 7-substituted-9-substituted amino 6-demethyl-6-deoxytetracyclines” (Wyeth Holdings Corporation, priority 1991, dated 2008)
